Assay results taken from patent US5491137A, “14α17α-(Propano-and 17^2 propeno) -estratrienes” (Schering Aktiengesellschaft, priority 1991, dated 1996).

Experiments:
vaginal epithelium = assay: Allen-Doisy test (vaginal smears in ovariectomized rats); format: in vivo; conditions: single administration day 1, smears days 3-5, threshold = amount at which 50% of animals reach stage 3 (estrus)
Method: In the Allen-Doisy test, an evaluation of vaginal smears in ovariectomized rats is performed on days 3-5 (d3-d5) after the one-time administration on day 1 (d1 ) of the test substance. The following cycle stages are distinguished:
1=diestrus (leukocytes and nucleated epithelial cells),
2=proestrus (nucleated epithelial cells),
3=estrus (denucleated horny plaques),
4=metestrus (denucleated horny plaques, leukocytes, epithelial cells).
After oral or subcutaneous administration, estrogenically active substances result in the proliferation of the vaginal epithelium and the hornification of superficial cell layers. Regarded as a threshold value, is the amount of an estrogen at which 50% of the animals reach stage 3. Further, estrogens cause an increase of the uterus weight.

Estrogen Receptor = Estrogen Receptor Test; format: binding; conditions: KF not defined in the patent

SMILES | Allen-Doisy Test p.o. [ED50] (vaginal epithelium) | Allen-Doisy Test s.c. [ED50] (vaginal epithelium) | Estrogen Receptor Test [KF] (Estrogen Receptor)
C[C@]12CC[C@@H]3c4ccc(O)cc4CC[C@H]3[C@@]13C=CC[C@]2(O)CC3 [14α,17α-(17^2 -Propeno)estra-1,3,5(10)-triene-3,17β-diol] | < 1 μg/Tier/Tag | 0,1-0,3 μg/Tier/Tag | 0,4
C#C[C@]1(O)CC[C@H]2[C@@H]3CCc4cc(O)ccc4[C@H]3CC[C@@]21C [Ethinylestradiol] | 3.0 μg/Tier/Tag | 0.1-0.3 μg/Tier/Tag | 0.5
